Source: ChEMBL document CHEMBL1201862, “PubChem BioAssay data set” (2004)
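Test compounds were applied to cells in 96-well plates for 48 hours at 5 doses. Here, GI50 denotes the concentration required for 50% inhibition of growth.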 Active and inactive are the calls of the source. No stated cut-off is given here; in the data, active = GI50 up to about 1.1 µM and inactive = higher.

Assays:
Assay in all cases: inhibition of tumour cell growth, NCI panel, 48 h
HCT-116 = system: HCT-116
HL-60 = system: HL-60
IGROV-1 = system: IGROV-1
LOX IMVI = system: LOX IMVI
M14 = system: M14
Malme-3M = system: Malme-3M
NCI-H460 = system: NCI-H460
NCI-H522 = system: NCI-H522
OVCAR-3 = system: OVCAR-3
OVCAR-4 = system: OVCAR-4
SF-295 = system: SF-295
SK-MEL-5 = system: SK-MEL-5
SR = system: SR
SW-620 = system: SW-620
TK-10 = system: TK-10

SMILES | GI50 (HCT-116) | GI50 (HL-60) | GI50 (IGROV-1) | GI50 (LOX IMVI) | GI50 (M14) | GI50 (Malme-3M) | GI50 (NCI-H460) | GI50 (NCI-H522) | GI50 (OVCAR-3) | GI50 (OVCAR-4) | GI50 (SF-295) | GI50 (SK-MEL-5) | GI50 (SR) | GI50 (SW-620) | GI50 (TK-10)
O=C1CC2(CCNCC2)C(=O)N1N1CCCCC1 | > 100 µM (inactive) | > 100 µM (inactive) | > 100 µM (inactive) | > 100 µM (inactive) | > 100 µM (inactive) | > 100 µM (inactive) | > 100 µM (inactive) | > 100 µM (inactive) | > 100 µM (inactive) | > 100 µM (inactive) | > 100 µM (inactive) | > 100 µM (inactive) | > 100 µM (inactive) | > 100 µM (inactive) | > 100 µM (inactive)
O=c1oc2ccc(Cl)cc2cc1-c1cn2cc(Cl)ccc2n1 | 6.3 µM (inactive) | 3.4 µM (inactive) | > 25.8 µM (inactive) | > 28.2 µM (inactive) | 4.46 µM (inactive) | 0.698 µM (active) | 14.4 µM (inactive) | 0.74 µM (active) | 5.3 µM (inactive) | > 100 µM (inactive) | 10.1 µM (inactive) | > 100 µM (inactive) | 0.473 µM (active) | > 32.3 µM (inactive) | > 100 µM (inactive)
CC(C)(Br)C(=O)/C=C/c1ccccc1 | 0.625 µM (active) | 3.91 µM (inactive) | 0.581 µM (active) | 1.32 µM (inactive) | 1.56 µM (inactive) | 2.62 µM (inactive) | 16.3 µM (inactive) | 0.136 µM (active) | 8.17 µM (inactive) | 2.3 µM (inactive) | 16.8 µM (inactive) | 11.6 µM (inactive) | 1.98 µM (inactive) | 2.39 µM (inactive) | 10.6 µM (inactive)
O=C1CCCCc2cccc(O)c21 | > 100 µM (inactive) | > 100 µM (inactive) | > 100 µM (inactive) | > 100 µM (inactive) | > 100 µM (inactive) | > 100 µM (inactive) | > 100 µM (inactive) | > 100 µM (inactive) | > 100 µM (inactive) | > 100 µM (inactive) | > 100 µM (inactive) | > 100 µM (inactive) | > 100 µM (inactive) | > 100 µM (inactive) | > 100 µM (inactive)
CC(=O)N(C(C)=O)n1c(Cc2ccc(C)cc2)nn(C(C)=O)c1=O | > 100 µM (inactive) | > 100 µM (inactive) | > 100 µM (inactive) | > 100 µM (inactive) | > 100 µM (inactive) | > 100 µM (inactive) | > 100 µM (inactive) | > 100 µM (inactive) | > 100 µM (inactive) | > 100 µM (inactive) | > 100 µM (inactive) | > 100 µM (inactive) | > 100 µM (inactive) | > 100 µM (inactive) | > 100 µM (inactive)
Nc1nc(N)c2ncn(Cc3ccccc3CO)c2n1 | > 100 µM (inactive) | > 100 µM (inactive) | > 100 µM (inactive) | > 100 µM (inactive) | > 100 µM (inactive) | > 100 µM (inactive) | > 100 µM (inactive) | > 100 µM (inactive) | > 100 µM (inactive) | > 100 µM (inactive) | > 100 µM (inactive) | > 100 µM (inactive) | > 100 µM (inactive) | > 100 µM (inactive) | > 100 µM (inactive)
CC1CC2=C(C1)C(C1(C)C(=O)CC3C(C1=O)C3(C)C)C(C)C2=O (stereo not given) | > 100 µM (inactive) | > 100 µM (inactive) | > 100 µM (inactive) | > 100 µM (inactive) | > 100 µM (inactive) | > 100 µM (inactive) | > 100 µM (inactive) | > 100 µM (inactive) | > 100 µM (inactive) | > 100 µM (inactive) | > 100 µM (inactive) | > 100 µM (inactive) | > 100 µM (inactive) | > 100 µM (inactive) | > 100 µM (inactive)
